Laboratory results from the METLIN SMRT retention time set (Domingo-Almenara et al. 2019).
Values belong to the molecule of their own block, whether it stands above or below them.

Assay: gradient 5% acetonitrile 3 min, to 50% in 2 min, to 85% in 15 min, held 3 min, 100 µL/min
Details: column: Zorbax Extend-C18 2.1 x 50 mm; eluents: water / acetonitrile, 0.1% formic acid
Outline: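 A Zorbax Extend-C18 column (2.1 × 50 mm, 1.8 μm) run at 100 μL/min with water and acetonitrile, both containing 0.1% formic acid, separated mixtures of ~100 pure standards. The HPLC was coupled to a quadrupole time-of-flight mass spectrometer operated in positive and negative ionization mode, with dead and dwell volumes of 40 μL and 900 μL. Each retention time was taken from a computationally picked adduct peak that was then manually inspected.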

- RP-LC retention time: 753 s
Structure (SMILES): CCN1C(=O)Cc2ccccc2C1C(=O)NCc1cc(F)ccc1F (stereo not given)

- RP-LC retention time: 660 s
Structure (SMILES): Cc1cccc2nnc(N3CCC(C(=O)NCc4ccccc4)CC3)n12

- RP-LC retention time: 927 s
Structure (SMILES): CC(C)NC(=O)c1ccccc1OCC1CCN(C(=O)c2cc(F)cc(F)c2)CC1

- RP-LC retention time: 805 s
Structure (SMILES): Cc1nc2cc(N3CC(C(=O)Nc4cccc(Br)c4)CC3=O)ccc2o1 (stereo not given)

- RP-LC retention time: 820 s
Structure (SMILES): COC(=O)c1c2c(nc3ccccc13)CCN(C(=O)Nc1ccccc1OC)C2

- RP-LC retention time: 1000 s
Structure (SMILES): CCn1cc(-c2nc(C)c(C(=O)NCc3ccc(C)cc3)s2)c2cccnc21

- RP-LC retention time: 719 s
Structure (SMILES): CNC(=O)N1CCCC(c2cccc(C(=O)NCc3cccs3)c2)C1 (stereo not given)

- RP-LC retention time: 887 s
Structure (SMILES): COCCCNC(=O)Cn1nc(C)c2nn(-c3ccc(Cl)cc3)c(-n3cccc3)c2c1=O

- RP-LC retention time: 735 s
Structure (SMILES): O=C(c1cc(C2CC2)[nH]n1)N1CC(n2cc(COc3ccc(F)cc3)nn2)C1

- RP-LC retention time: 625 s
Structure (SMILES): CCOC(=O)CNC(=O)CSc1ccc2nnc(-c3cccc(F)c3)n2n1

- RP-LC retention time: 839 s
Structure (SMILES): Cc1c(C(=O)N2CCN(C(=O)c3ccc(Br)o3)CC2)[nH]c2ccccc12

- RP-LC retention time: 1040 s
Structure (SMILES): C[C@H]1CN(C(=O)c2ccc(F)cc2F)C[C@@H]1c1nc(-c2ccccc2)no1

- RP-LC retention time: 655 s
Structure (SMILES): Cc1ccn2cc(C(=O)NCc3ccc(F)cc3F)nc2c1

- RP-LC retention time: 630 s
Structure (SMILES): Cc1ccc(NC(=O)Nc2c(-c3ccncc3)nc3ccccn23)cc1F

- RP-LC retention time: 800 s
Structure (SMILES): COCc1cc2nn(CC(=O)Nc3ccccc3)c(=O)n2c(-c2ccccc2)n1

- RP-LC retention time: 671 s
Structure (SMILES): CCN(CC)C(=O)c1ccc(-c2nc3cc(NS(=O)(=O)c4ccccc4)ccc3n2C)cc1

- RP-LC retention time: 976 s
Structure (SMILES): Cc1ccc(NC(=O)Cn2nc3cc(-c4ccccc4)nc(C)n3c2=O)cc1F

- RP-LC retention time: 970 s
Structure (SMILES): Cc1ccc(NC(=O)Cn2nc(N3CCSCC3)c3ccccc3c2=O)cc1Cl

- RP-LC retention time: 907 s
Structure (SMILES): CCC1Oc2ccc(S(=O)(=O)N3CCC(C(=O)Nc4ccccc4Cl)CC3)cc2NC1=O (stereo not given)

- RP-LC retention time: 726 s
Structure (SMILES): COCCNC(=O)Cn1nc2cc(C)nc(-c3ccc(C(F)(F)F)cc3)n2c1=O

- RP-LC retention time: 712 s
Structure (SMILES): CC(=O)N1CCC(C(=O)Nc2ccc(OCc3nnc(-c4ccccc4)o3)cc2)CC1

- RP-LC retention time: 623 s
Structure (SMILES): CCn1c(-c2ccccc2)nc2ccccc21

- RP-LC retention time: 851 s
Structure (SMILES): CCOc1ccccc1NC(=O)N1CCN(c2ccc(=O)n(-c3ccccc3)n2)CC1

- RP-LC retention time: 872 s
Structure (SMILES): O=C(NCc1csc(-c2ccccc2)n1)C1CCN(S(=O)(=O)c2cccs2)CC1

- RP-LC retention time: 1230 s
Structure (SMILES): Cc1cccc(C)c1NC(=O)C1CCCN(c2nc3c(s2)c(C)nn3-c2cccc(F)c2)C1 (stereo not given)

- RP-LC retention time: 876 s
Structure (SMILES): Cn1cc(C(=O)NCc2ccc(F)c(Cl)c2)c(S(=O)(=O)N2CCCCC2)n1

- RP-LC retention time: 731 s
Structure (SMILES): CC(=O)c1cccc(NC(=O)c2ncn(-c3ccccc3)n2)c1

- RP-LC retention time: 924 s
Structure (SMILES): O=c1c2c(CO)c(-c3ccccc3)nn2ccn1Cc1cc(F)ccc1F

- RP-LC retention time: 658 s
Structure (SMILES): COC(=O)c1ncn2c1C(=O)N(C1CC1)C(C)(C(=O)NCc1ccccc1Cl)C2 (stereo not given)

- RP-LC retention time: 882 s
Structure (SMILES): O=C(Cn1cccc1-c1nnc(-c2ccccc2)o1)NCc1ccccc1

- RP-LC retention time: 1020 s
Structure (SMILES): O=S(=O)(c1ccc2c(c1)-c1oncc1CO2)N1CCCc2ccccc21

- RP-LC retention time: 852 s
Structure (SMILES): COc1ccc(OC)c(CNC(=O)c2ccc3c(c2)N(C)C(=O)c2ccccc2O3)c1

- RP-LC retention time: 746 s
Structure (SMILES): Cc1ccc(C2NC(=O)N(CC(=O)Nc3ccc4c(c3)OCO4)C3=C2C(=O)OC3)cc1 (stereo not given)

- RP-LC retention time: 560 s
Structure (SMILES): CN(C)C(=O)c1cc2c(s1)CCC(C(=O)NCCc1ccccn1)C2 (stereo not given)

- RP-LC retention time: 907 s
Structure (SMILES): CSc1ncccc1C(=O)N1CCCC1c1nc(-c2ccc(F)cc2F)no1 (stereo not given)

- RP-LC retention time: 800 s
Structure (SMILES): COCCN1C(=O)CCc2cc(NS(=O)(=O)c3ccc(F)c(C)c3)ccc21

- RP-LC retention time: 1050 s
Structure (SMILES): Cc1ccc(NC(=O)N2CCCC2c2nc(-c3ccc(F)cc3F)no2)c(C)c1 (stereo not given)

- RP-LC retention time: 814 s
Structure (SMILES): Cc1ccc(Cl)cc1N1C(=O)CN(S(C)(=O)=O)CC1(C)C(=O)NCc1ccc(F)cc1 (stereo not given)

The next lines start with the molecule.

Structure (SMILES): COc1ccc(-c2nnc(-c3cc(S(=O)(=O)N4CCOCC4)ccc3Cl)o2)cc1
- RP-LC retention time: 950 s

Structure (SMILES): Cc1[nH]c(C(=O)N2CCC(CC(=O)NC3CCCCCC3)CC2)c(C)c1C
- RP-LC retention time: 872 s

Structure (SMILES): O=C(NCc1nnnn1C1CCCCC1)c1ccc(Br)o1
- RP-LC retention time: 738 s

Structure (SMILES): CCn1ccc(C(=O)N2CCC3(CC2)NCc2ccccc2-n2ccnc23)n1
- RP-LC retention time: 579 s

Structure (SMILES): CCCOc1ccc(S(=O)(=O)n2cccn2)cc1C
- RP-LC retention time: 986 s

Structure (SMILES): CCCc1noc(-c2cccnc2N2CCCN(Cc3cc(F)cc(F)c3)CC2)n1
- RP-LC retention time: 733 s

Structure (SMILES): CCCNC(=O)N1CCN(Cc2nc(-c3ccc(OCC)cc3)oc2C)CC1
- RP-LC retention time: 661 s

Structure (SMILES): CCCCN(C)C(=O)c1sc(-c2cn(C(C)C)c3ncccc23)nc1C
- RP-LC retention time: 1010 s

Structure (SMILES): COCCNC(=O)NC1CCN(C2=NS(=O)(=O)C(c3ccc(C)cc3)=C2C)CC1
- RP-LC retention time: 1140 s

Structure (SMILES): Cc1nccn1C1CN(C(=O)c2ccc3cc[nH]c3c2)C1
- RP-LC retention time: 582 s

Structure (SMILES): O=c1ccc(-c2ccccc2)nn1CCc1nc(-c2ccc3c(c2)OCO3)no1
- RP-LC retention time: 900 s

Structure (SMILES): Cc1cccc(NC(=O)c2c(O)c3cccnc3n(-c3ccccc3)c2=O)c1C
- RP-LC retention time: 1300 s

Structure (SMILES): Cc1cc(C)n2c(Nc3c(C)cccc3C)c(-c3ccc(Cl)cc3)nc2n1
- RP-LC retention time: 815 s

Structure (SMILES): O=C(NC1CC1)C1CCN(S(=O)(=O)Cc2ccc(F)cc2)CC1
- RP-LC retention time: 929 s

Structure (SMILES): O=C(c1cn(-c2cc(N3CCCCC3)ncn2)cn1)N1CCN(C(=O)c2ccco2)CC1
- RP-LC retention time: 675 s

Structure (SMILES): CC1=C(c2ccccc2)S(=O)(=O)N=C1N1CCCN(C(=O)NC(C)C)CC1
- RP-LC retention time: 714 s

Structure (SMILES): Cc1cc(-c2c(C)sc(C)c2S(=O)(=O)N2CCN(c3ccccc3F)CC2)n[nH]1
- RP-LC retention time: 971 s

Structure (SMILES): NC(=O)c1cnc(N[C@@H]2CCCC[C@@H]2N)nc1Nc1cccc(-n2nccn2)c1
- RP-LC retention time: 654 s

Structure (SMILES): CCn1nccc1C(=O)N1CC(Oc2ccc(-c3nc(C)no3)cc2)C1
- RP-LC retention time: 800 s

Structure (SMILES): Cc1nc(-c2csc(S(=O)(=O)N3CCCC(C(=O)NC4CCCCCCC4)C3)c2)no1 (stereo not given)
- RP-LC retention time: 1060 s

Structure (SMILES): O=C(CSc1nc(-c2ccccc2)ns1)OCc1ccccc1
- RP-LC retention time: 1160 s

Structure (SMILES): Cc1ccc(-c2noc(CCn3nc(-c4ccc(C)c(C)c4)ccc3=O)n2)cc1
- RP-LC retention time: 1150 s

Structure (SMILES): CC12C(=O)N(c3nccs3)C(=O)C1(C)C1CCC2O1 (stereo not given)
- RP-LC retention time: 741 s

Structure (SMILES): COC(=O)CNC(=O)N1CCCC1c1cccc(C)c1 (stereo not given)
- RP-LC retention time: 734 s

Structure (SMILES): CCCc1c(OCCCOc2ccc(OCC(=O)O)cc2)ccc(C(C)=O)c1O
- RP-LC retention time: 1150 s

Structure (SMILES): CCn1nc(C)cc1C(=O)N1CCNC(=O)C1(C)C
- RP-LC retention time: 568 s

Structure (SMILES): CN1CCN(c2cc(C(=O)O)c3cc(NC(=O)C(C)(C)C)ccc3n2)CC1
- RP-LC retention time: 578 s

Structure (SMILES): O=C1NCCCn2cc(S(=O)(=O)Nc3ccc(F)c(Cl)c3)cc21
- RP-LC retention time: 686 s

Structure (SMILES): CN(CC1(C)CCOCC1)S(=O)(=O)c1ccccc1C(F)(F)F
- RP-LC retention time: 820 s

Structure (SMILES): CN(C)c1ncncc1N1CCC(C(=O)NCC2CCCO2)CC1 (stereo not given)
- RP-LC retention time: 566 s

Structure (SMILES): CCC(=O)Nc1ccc(C2(C(=O)N3CCN(c4cccc(C)c4)CC3)CCC2)cc1
- RP-LC retention time: 908 s

Structure (SMILES): CCC1CCCCN1Cc1nc(Cn2ccn3nc(-c4ccc(C)cc4)cc3c2=O)no1 (stereo not given)
- RP-LC retention time: 726 s

Structure (SMILES): CCOCCOC(=O)C1=C(C)NC2=C(C(=O)C(C(=O)OC)C(C)C2)C1c1cccc(Cl)c1 (stereo not given)
- RP-LC retention time: 931 s

Structure (SMILES): CCCN1C(=O)c2cc(S(=O)(=O)N3CCCCC3CC)ccc2Oc2cccnc21 (stereo not given)
- RP-LC retention time: 1260 s

Structure (SMILES): CCCn1ccc2sc(C)c(C(=O)NC(C)C)c2c1=O
- RP-LC retention time: 720 s

Structure (SMILES): C=CCc1c(C)c(C#N)c2nc3ccccc3n2c1NCCOCCO
- RP-LC retention time: 589 s

Structure (SMILES): COc1ccc(NS(=O)(=O)c2ccc3c(c2)CCCC(=O)N3)cc1Cl
- RP-LC retention time: 738 s

Structure (SMILES): Cc1cc(C)cc(NC(=O)C(=O)NCC(c2ccc3c(c2)CCCN3C)N2CCOCC2)c1 (stereo not given)
- RP-LC retention time: 601 s

Structure (SMILES): O=C(C1COc2ccccc2O1)N(CCc1cccs1)Cc1ccco1 (stereo not given)
- RP-LC retention time: 1020 s

Structure (SMILES): COc1ccccc1Nc1c(-c2ccccc2)nc2cnccn12
- RP-LC retention time: 875 s

Structure (SMILES): CC(C)c1noc(-c2ccc(-n3cnc(C(=O)NC4CCCCC4)c3)nc2)n1
- RP-LC retention time: 741 s

Structure (SMILES): Cc1cc(C)cc(NC(=O)Cn2cnc3c(sc4nc(-c5ccccc5)ccc43)c2=O)c1
- RP-LC retention time: 1100 s

Structure (SMILES): CC(C)CNC(=O)c1nc2cccnc2n(C)c1=O
- RP-LC retention time: 701 s

Structure (SMILES): Nc1nnc(CS(=O)(=O)c2ccccc2)o1
- RP-LC retention time: 568 s

Structure (SMILES): O=C(c1ccc2c(c1)OCO2)N1CCC2(CC1)N=C(c1ccc(Cl)cc1)NO2
- RP-LC retention time: 956 s

Structure (SMILES): CCSc1nc2ncc(-c3ccnc(N4CCN(C)CC4)n3)c(C)n2n1
- RP-LC retention time: 808 s

Structure (SMILES): CC(C)n1c(CN2CCOCC2)nc2cc(NC(=O)c3cccs3)ccc21
- RP-LC retention time: 640 s

Structure (SMILES): CC(C)CN1CCN(C(=O)CN2CCN(Cc3ccc(F)cc3Cl)C2=O)CC1
- RP-LC retention time: 634 s

Structure (SMILES): CCNC(=O)c1cc(C)on1
- RP-LC retention time: 596 s

Structure (SMILES): O=C(NCC1CCCO1)c1ccc(-c2ccc(N3CCCCC3)nc2)cc1 (stereo not given)
- RP-LC retention time: 613 s

Structure (SMILES): CCNC(=O)c1nnc(-c2ccc(S(=O)(=O)N3CCCC3)cc2)o1
- RP-LC retention time: 753 s

Structure (SMILES): O=C(NCC1CCCO1)c1cn(-c2cc(-c3nc(C4CC4)no3)ccn2)cn1 (stereo not given)
- RP-LC retention time: 762 s
